We go through 7 molecules from PMC3951423, “Structural Bases of Norovirus RNA Dependent RNA Polymerase Inhibition by Novel Suramin-Related Compounds” (PLoS ONE, 2014).

SMILES strings stand for the structures. ≈ marks a conversion by molar mass, not a printed value. Where “and” joins values, the source holds several entries; their conditions need not be identical. Equal entries are not always repeated. Structures can show the parent of a compound that is named as a salt.

Data set [1] in a line: Water solubility (Bookser's method). It counts as physicochemical. The note with it: thermodynamic from solid, deionized water, saturated solution. The text has this:
(§1) Bookser's method was applied to obtain the water solubility of sodium organosulphonates 3–8 and Suramin (9) by use of HPLC with a UV detector (see Table 1). Furthermore, the “shake–flask method” [28] was applied to obtain their hydrophobicity by use of n-octanol and water. The apparent partition coefficient (P) shown in Table 1 is the ratio of the concentration in n-octanol to the total concentration (i.e., ionized plus non-ionized) of the species in the aqueous phase, [29].
A stock solution was prepared by dissolving a precisely weighed amount of Suramin derivatives in deionized water (1.0 ml). The UV absorption maximum of each compound was measured by dilution of the solution with deionized water as necessary. A saturated solution of each compound was then prepared by use of deionized water (1.0 ml) in the presence of an excess of Suramin derivatives for 1.0 hour. The obtained saturated solution was filtered to remove solid compound through a Millipore filter (0.45 μm) and was scanned by UV spectroscopy at the wavelength of the absorption maximum previously determined.

A short description of data set [2]: n-Octanol/water partition coefficient (shake-flask method). The note with it: n-octanol / pH 7.4 phosphate buffer, 25 °C, average of three experiments, read-out: hydrophobicity log P. It counts as physicochemical.
Source text: as §1
The n-octanol/water partition coefficient of Suramin derivatives was determined by the shake-flask method. n-Octanol and pH 7.4 phosphate buffer were mutually saturated for 4.0 hours, and the phases were separated. A stock solution of each Suramin derivative was prepared using pH 7.4 phosphate buffer solution. Suramin derivatives were partitioned between n-octanol and pH 7.4 phosphate buffer. Then the phase mixtures were shaken for 1 hour at constant 25 °C. After separation, the absorbance of the phosphate buffer solutions (pH 7.4) was measured by UV spectrophotometry. Three replicates were performed for each compound. The P value corresponded to the quotient between n-octanol and buffer concentrations of the drug. The log P values were an average of three independent experiments.

Data set [3] concerns the target T1, hNV-RdRp (Norovirus GII (human norovirus; Norwalk-like virus), UniProt A0ZNP5). As to the kind of experiment: In-vitro RdRp inhibition assay (PicoGreen fluorescence, poly(C)/oligoG12). It counts as biochemical. The settings on record: poly(C) template, G12 primer, GTP 100 μM; read-out: IC50 hNVRdRp. The procedure:
(§2) hNV and mNV-RdRp inhibition assays were performed monitoring the impairment of RNA synthesis as a function of inhibitor concentration, as previously described. Briefly, RdRp activity was assessed in vitro (measuring PicoGreen fluorescence) following the synthesis of double-stranded RNA from a single-stranded RNA poly(C) template annealed with a G12 primer. The assay can easily be adapted for any viral RNA polymerase.
(§3) RdRp assays were performed as previously described. In brief poly(C) (MP Biomedicals) was used as template annealed with oligoG12 as primer (62.5 nM final concentration) and GTP (100 μM final concentration) as substrate, in a 200 μl reaction mixture containing 20 mM Tris/HCl pH 7.5, 25 mM NaCl, 5 mM MgCl2, 0.3 mM MnCl2, 1 mM DTT, PicoGreen Quantitation Reagent (Molecular Probes) diluted 1/200 20 U ml−1 RiboLock Ribonuclease Inhibitor (Fermentas). Reactions were started by the addition of GTP following the fluorescence of samples in a fluorescence reader (Varian, Cary Eclipse Fluorescence Spectrophotometer).

In data set [4] the target is T2, mNV-RdRp (Norovirus, UniProt Q80J95).
T2 construct: Solutions of 4 μl of the NV-RdRp domain (final hNV-RdRp concentration 7 μM, final mNV-RdRp concentration 1.6 μM); made in house
Described as above. It counts as biochemical. The settings on record: poly(C) template, G12 primer, GTP 100 μM; read-out: IC50 mNVRdRp. How it is done: as §2, §3

Data set [5] concerns the target T1, hNV-RdRp. Put plainly: Thermofluorimetric (thermal shift) assay. It counts as binding. The settings on record: inhibitor 4 μM, hNV-RdRp 7 μM, Sypro Orange; free enzyme Tm 41.5. How it is done: (§4) In order to exclude that 8 and 6 inhibition might be linked to some form of RdRp destabilization/aggregation/denaturation, a process generally reflected by a variation of the protein melting temperature (Tm), we performed thermofluorimetric assays on free and inhibited NV-RdRps.
(§5) Thermofluorimetric (Thermal shift) assays for the evaluation of the hNV-RdRp melting temperature (Tm) in the absence/presence of the inhibitors, were conducted in a MiniOpticon Real Time PCR Detection System (Bio-Rad), using the fluorescent dye Sypro Orange. Solutions of 4 μl of the NV-RdRp domain (final hNV-RdRp concentration 7 μM, final mNV-RdRp concentration 1.6 μM) were diluted in 9.5 μl of its buffer, and mixed with 3.5 μl of Sypro orange (Sigma) diluted 60×, and 1 μl of 6 or 8 (4 μM final concentration). In control samples the inhibitors were replaced by water. The sample plates were heated from 20 to 90°C with a heating rate of 0.2 °C/min. Fluorescence intensities were measured within excitation/emission ranges of 470–505 nm and 540–700 nm, respectively.

The target of data set [6] is T2, mNV-RdRp. Put plainly: Thermofluorimetric (thermal shift) assay. It counts as binding. The note with it: inhibitor 4 μM, mNV-RdRp 1.6 μM, Sypro Orange; free enzyme Tm 39.6 ±0.2. How it is done:
as §4, §5

Data set [7] in a line: Solubility in organic solvents (observation during synthesis). The settings on record: most organic solvents, including THF and DMSO. It counts as physicochemical.
Data set [8] has as its system NV-RdRp. Also on record: method as in earlier work. The note with it: ref 34 (Tarantino et al., in press); cited from earlier work.
For data set [9] the following is noted: statement in the Introduction, no reference given; cited from earlier work.

In data set [1], `Cc1ccc(C(=O)Nc2ccc(S(=O)(=O)O)c3cccc(S(=O)(=O)O)c23)cc1[N+](=O)[O-]` [Compound 3, 4-(4-Methyl-3-nitrobenzamido)naphthalene-1,5-disulphonate Acid Disodium Salt] showed a solubility at 1 h of 260 mg/mL. Besides, the logP at 1 h in data set [2] was -2.19. In addition, the IC50 came to 1280 ± 70 nM in [3] and 200 ± 10 nM in data set [4].

On to `Cc1ccc(C(=O)Nc2ccc(S(=O)(=O)O)c3cccc(S(=O)(=O)O)c23)cc1N` [Compound 4, 4-(3-Amino-4-methylbenzamido)naphthalene-1,5-disulphonate Acid Disodium Salt], for which the solubility at 1 h in data set [1] is 339 mg/mL. The logP at 1 h in [2] is -2.33. Besides, the IC50 in [3] is 1100 ± 200 nM; in data set [4] it was 160 ± 7 nM.

In the case of `Cc1ccc(C(=O)Nc2ccc(S(=O)(=O)O)c3cccc(S(=O)(=O)O)c23)cc1NC(=O)c1cccc([N+](=O)[O-])c1` [Compound 6, 4-[4-Methyl-3-(3-nitrobenzamido)benzamido]naphthalene-1,5-disulsulphonate Acid Disodium Salt], the solubility at 1 h in [1] came to 179 mg/mL. The logP at 1 h in [2] is -1.64. The IC50 in [3] was 1000 ± 90 nM; in [4], 115 ± 15 nM. Moreover, in data set [5], the “hNV-RdRp Tm in the presence of inhibitor” value turned out to be 41.2±0.2 °C. The “mNV-RdRp Tm in the presence of inhibitor” value in data set [6] came to 39.4±0.3 °C.

Turning to `Cc1ccc(C(=O)Nc2ccc(S(=O)(=O)O)c3cccc(S(=O)(=O)O)c23)cc1NC(=O)c1cccc(N)c1` [Compound 7, 4-[3-(3-Aminobenzamido)-4-methylbenzamido]naphthalene-1,5-disulphonate Acid Disodium Salt], the solubility at 1 h in [1] worked out at 249 mg/mL. For the same molecule, the logP at 1 h in [2] was -2.11. In addition, the IC50 turned out to be 1100 ± 50 nM in [3] and 160 ± 6 nM in data set [4]. The “Solubility in organic solvents” value in data set [7] is “very poor”.

With `Cc1ccc(C(=O)Nc2ccc(S(=O)(=O)O)c3cccc(S(=O)(=O)O)c23)cc1NC(=O)c1cccc(NC(=O)Nc2cccc(C(=O)Nc3cc(C(=O)Nc4ccc(S(=O)(=O)O)c5cccc(S(=O)(=O)O)c45)ccc3C)c2)c1` [Compound 8, 4-4′-(Carbonylbis[imino-3,1-phenylenecarbonylimino(4-methyl-3,1-phenylene)carbonylimino])bis-1,5-naphthalenedisulphonate Acid Tetrasodium Salt], the solubility at 1 h in data set [1] is 114 mg/mL. For the same molecule, the logP at 1 h in [2] was -1.61. The IC50 in [3] was 28 ± 4 nM; in data set [4], ~60 nM and 60 nM. Further, the “hNV-RdRp Tm in the presence of inhibitor” value in data set [5] worked out at 41.4 °C. Besides, the “mNV-RdRp Tm in the presence of inhibitor” value in data set [6] turned out to be 39.8 ±0.2 °C.

As to `Cc1nc(N=Nc2cc(S(=O)(=O)O)c3cc([N+](=O)[O-])cc(S(=O)(=O)O)c3c2)c(COP(=O)(O)O)c(C=O)c1O` [PPNDS], the “inhibitory potency against NV-RdRp” value in data set [8] is “low nM”.

In turn, `Cc1ccc(C(=O)Nc2ccc(S(=O)(=O)O)c3cc(S(=O)(=O)O)cc(S(=O)(=O)O)c23)cc1NC(=O)c1cccc(NC(=O)Nc2cccc(C(=O)Nc3cc(C(=O)Nc4ccc(S(=O)(=O)O)c5cc(S(=O)(=O)O)cc(S(=O)(=O)O)c45)ccc3C)c2)c1` [Suramin (9), Suramin] showed a solubility at 1 h in data set [1] of 138 mg/mL (≈ 106 mM). For the same molecule, the logP at 1 h in [2] is -3.42. The IC50 in [3] came to 27 ± 3 nM; in data set [4] it was 70 ± 3 nM. In addition, the “log P” value in [9] is recorded as “lower than 0”.
